Where two headings read alike, the source gives them in different places.
Assays:
[1] = measured octanol-water partition coefficients from multiple sources; cited from earlier work
[2] = intrinsic PAMPA permeability, 10% porcine brain extract lipids in alkane; cited from earlier work
blood-brain barrier [3] = assay: in situ rat brain perfusion, pH-dependent; conditions: for Kin: 30-s perfusion; for PcS (pH-CRE): new pH-CRE method; for log(Kin/S) (= log Pe): S = 100 cm^2·g^−1; for PcS (CRE): traditional Crone-Renkin equation; for Fpf (cerebrovascular flow velocity refined from the compound's Kin-pH data): weighted nonlinear regression, Eq. 4
blood-brain barrier [4] = conditions: mouse in situ brain perfusion; cited from earlier work
blood-brain barrier [5] = conditions: pH 7.4; S = 100 cm^2·g^−1; rat; cited from earlier work
[6] = pKa determination at 37°C; assay type: physicochemical
blood-brain barrier [7] = conditions: male, Sprague-Dawley, rat, 30 s
blood-brain barrier [8] = conditions: typical values; cited from earlier work

CN(C)CCC=C1c2ccccc2CCc2ccccc21 [Amitriptyline]
log POCT [1]: 4.6 | log Po^PAMPA−BBB [2]: −1.2 | Kin (blood-brain barrier [3]; dosing group B-1, pH 8.0, 10 mM bicine in KRB): 0.044 ± 0.013 mL/g/s | Kin (blood-brain barrier [3]; dosing group B-2, pH 8.5, 10 mM bicine in KRB): 0.045 ± 0.014 mL/g/s | PcS (pH-CRE) (blood-brain barrier [3]; pH 7.4): 2997 | log(Kin/S) (= log Pe) (blood-brain barrier [3]; pH 8.0, this work): −3.35 ± 0.13 cm·s^−1 | PcS (pH-CRE) (blood-brain barrier [3]; pH 8.0): 10,974 | PcS (CRE) (blood-brain barrier [3]; pH 8.0): 549 | log(Kin/S) (= log Pe) (blood-brain barrier [3]; pH 8.5, this work): −3.35 ± 0.13 cm·s^−1 | PcS (pH-CRE) (blood-brain barrier [3]; pH 8.5): 28,173 | Fpf (cerebrovascular flow velocity refined from the compound's Kin-pH data) (blood-brain barrier [3]): 0.051 ± 0.003 mL.g^−1.s^−1 | Pgp effect ratio Kin^knockout/Kin^wildtype (blood-brain barrier [4]): 1.0 | log(Kin/S) (= log Pe) (blood-brain barrier [5]): −3.27 ± 0.06 cm·s^−1 | pKa [6]: 8.92 ± 0.1

Cc1cc(=O)n(-c2ccccc2)n1C [Antipyrine]
log POCT [1]: 0.6 | log Po^PAMPA−BBB [2]: −5.3 | Kin (range over dosing groups) (blood-brain barrier [7]; in vivo, pH 5.5): 0.0042 to 0.0082 mL/g/s | PcS (CRE) (blood-brain barrier [7]; in vivo, pH 5.5): 63 | PcS (pH-CRE) (blood-brain barrier [7]; in vivo, pH 5.5): 77 | PcS (CRE) (blood-brain barrier [7]; in vivo, pH 6.5): 54 | PcS (pH-CRE) (blood-brain barrier [7]; in vivo, pH 6.5): 77 | Kin (blood-brain barrier [7]; in vivo, pH 7.4): 82 ± 23 10^−4 mL.g^−1.s^−1 | PcS (CRE) (blood-brain barrier [7]; in vivo, pH 7.4): 92 | PcS (pH-CRE) (blood-brain barrier [7]; in vivo, pH 7.4): 77 | PcS (CRE) (blood-brain barrier [7]; in vivo, pH 8): 80 | PcS (pH-CRE) (blood-brain barrier [7]; in vivo, pH 8): 77 | PcS (CRE) (blood-brain barrier [7]; in vivo, pH 8.5): 70 | PcS (pH-CRE) (blood-brain barrier [7]; in vivo, pH 8.5): 77 | log Po (intrinsic, neutral molecule, luminal permeability) (blood-brain barrier [7]; po): −4.13 ± 0.02 cm.s^−1

CNCC[C@@H](Oc1ccccc1C)c1ccccc1 [Atomoxetine]
log POCT [1]: 3.3 | log Po^PAMPA−BBB [2]: −1.8 | Kin (blood-brain barrier [3]; dosing group B-3, pH 8.0, 10 mM bicine in KRB): 0.026 ± 0.010 mL/g/s | Kin (blood-brain barrier [3]; dosing group B-4, pH 8.5, 10 mM bicine in KRB, no CsA): 0.032 ± 0.015 mL/g/s | PcS (pH-CRE) (blood-brain barrier [3]; pH 7.4): 805 | log(Kin/S) (= log Pe) (blood-brain barrier [3]; pH 8.0, this work): −3.59 ± 0.16 cm·s^−1 | PcS (pH-CRE) (blood-brain barrier [3]; pH 8.0): 3134 | PcS (CRE) (blood-brain barrier [3]; pH 8.0): 549 | log(Kin/S) (= log Pe) (blood-brain barrier [3]; pH 8.5, this work): −3.50 ± 0.20 cm·s^−1 | PcS (pH-CRE) (blood-brain barrier [3]; pH 8.5): 9295 | Fpf (cerebrovascular flow velocity refined from the compound's Kin-pH data) (blood-brain barrier [3]): 0.031 ± 0.002 mL.g^−1.s^−1 | log(Kin/S) (= log Pe) (blood-brain barrier [5]): −3.49 ± 0.12 cm·s^−1 | pKa [6]: 9.5 ± 0.05

CN(C)CCCN1c2ccccc2CCc2ccccc21 [Imipramine]
Kin (blood-brain barrier [3]; dosing group B-5, pH 7.4, KRB): 0.031 ± 0.021 mL/g/s | Kin (blood-brain barrier [3]; dosing group B-6, pH 8.5, 10 mM bicine in KRB): 0.032 ± 0.002 mL/g/s | PcS (pH-CRE) (blood-brain barrier [3]; pH 7.4): 1416 | PcS (CRE) (blood-brain barrier [3]; pH 7.4): 1437 | PcS (pH-CRE) (blood-brain barrier [3]; pH 8.5): 15,260 | PcS (CRE) (blood-brain barrier [3]; pH 8.5): 2150 | Fpf (cerebrovascular flow velocity refined from the compound's Kin-pH data) (blood-brain barrier [3]): 0.032 mL.g^−1.s^−1 | pKa [6]: 9.23 ± 0.06

COc1ccc2c(c1)c(CC(=O)O)c(C)n2C(=O)c1ccc(Cl)cc1 [Indomethacin]
log POCT [1]: 3.5 | log Po^PAMPA−BBB [2]: −2.7 | Kin (blood-brain barrier [3]; dosing group A-1, pH 5.5, 10 mM MES in KRB): 0.032 ± 0.008 mL/g/s | Kin (blood-brain barrier [3]; dosing group A-2, pH 6.5, 10 mM MES in KRB): 0.004 ± 0.001 mL/g/s | Kin (blood-brain barrier [3]; dosing group A-2, pH 6.5, 10 mM MES in KRB, listed as indomethacin): 0.0042 ± 0.0008 mL/g/s | log(Kin/S) (= log Pe) (blood-brain barrier [3]; pH 5.5, this work): −3.50 ± 0.10 cm·s^−1 | PcS (pH-CRE) (blood-brain barrier [3]; pH 5.5): 399 | PcS (CRE) (blood-brain barrier [3]; pH 5.5): 400 | log(Kin/S) (= log Pe) (blood-brain barrier [3]; pH 6.5, this work (sertraline with 5 µM CsA)): −4.39 ± 0.08 cm·s^−1 | PcS (pH-CRE) (blood-brain barrier [3]; pH 6.5): 42 | PcS (CRE) (blood-brain barrier [3]; pH 6.5): 42 | Fpf (cerebrovascular flow velocity refined from the compound's Kin-pH data) (blood-brain barrier [3]): 0.081 mL.g^−1.s^−1

CNCCCC12CCC(c3ccccc31)c1ccccc12 [Maprotiline]
log POCT [1]: 5.1 | log Po^PAMPA−BBB [2]: −0.6 | Kin (blood-brain barrier [3]; dosing group B-7, pH 8.0, 10 mM bicine in KRB): 0.052 ± 0.011 mL/g/s | Kin (blood-brain barrier [3]; dosing group B-8, pH 8.5, 10 mM bicine in KRB): 0.036 ± 0.013 mL/g/s | log(Kin/S) (= log Pe) (blood-brain barrier [3]; pH 7.4, this work): −3.48 ± 0.11 cm·s^−1 | PcS (pH-CRE) (blood-brain barrier [3]; pH 7.4): 591 | PcS (CRE) (blood-brain barrier [3]; pH 7.4): 580 | log(Kin/S) (= log Pe) (blood-brain barrier [3]; pH 8.0, this work): −3.29 ± 0.09 cm·s^−1 | PcS (pH-CRE) (blood-brain barrier [3]; pH 8.0): 2335 | log(Kin/S) (= log Pe) (blood-brain barrier [3]; pH 8.5, this work): −3.44 ± 0.15 cm·s^−1 | PcS (pH-CRE) (blood-brain barrier [3]; pH 8.5): 7234 | PcS (CRE) (blood-brain barrier [3]; pH 8.5): 691 | Fpf (cerebrovascular flow velocity refined from the compound's Kin-pH data) (blood-brain barrier [3]): 0.047 ± 0.006 mL.g^−1.s^−1 | pKa [6]: 10.01 ± 0.01

CN[C@H]1CC[C@@H](c2ccc(Cl)c(Cl)c2)c2ccccc21 [Sertraline]
log POCT [1]: 4.9

OC[C@H]1O[C@@](CO)(O[C@H]2O[C@H](CO)[C@@H](O)[C@H](O)[C@H]2O)[C@@H](O)[C@@H]1O [sucrose]
in vivo Pc (paracellular) (blood-brain barrier [8]): about 0.15 10^−6 cm·s^−1

inulin
in vivo Pc (paracellular) (blood-brain barrier [8]): ~0.04 10^−6 cm·s^−1
